Measured values: patent publication US20260174875A1 (Novo Nordisk A/S, priority 2023, published 2026)
Numbered stars: 1 amine (or outer) side, 2 acyl side, 3 side chain; on linkers, the order of the positions; unused ones are H or OH. Square brackets hold non-standard residues; d marks the D form. Side chains are listed from the residue outwards. * marks the point of attachment. C16 diacid = O=C(O)CCCCCCCCCCCCCCC(=O)*; γGlu = O=C(O)[C@H](CCC(=O)[*:2])N[*:1]; AEEA = NCCOCCOCC(=O)O; Aib = CC(C)(N)C(=O)O

Columns and labels:
Assay type in all cases: cell-based
[1] = biological target: T1, human GLP-1 receptor (hGLP-1R) (Homo sapiens, UniProt P43220); assay: GLP-1 receptor assay, method A (CRE-luciferase reporter, BHK cells); details: method A, absence of HSA; read-out: hGLP-1R Potency, no HSA, EC50
T1 construct: expressed in transfected cells
T1 sequence (P43220 24-463): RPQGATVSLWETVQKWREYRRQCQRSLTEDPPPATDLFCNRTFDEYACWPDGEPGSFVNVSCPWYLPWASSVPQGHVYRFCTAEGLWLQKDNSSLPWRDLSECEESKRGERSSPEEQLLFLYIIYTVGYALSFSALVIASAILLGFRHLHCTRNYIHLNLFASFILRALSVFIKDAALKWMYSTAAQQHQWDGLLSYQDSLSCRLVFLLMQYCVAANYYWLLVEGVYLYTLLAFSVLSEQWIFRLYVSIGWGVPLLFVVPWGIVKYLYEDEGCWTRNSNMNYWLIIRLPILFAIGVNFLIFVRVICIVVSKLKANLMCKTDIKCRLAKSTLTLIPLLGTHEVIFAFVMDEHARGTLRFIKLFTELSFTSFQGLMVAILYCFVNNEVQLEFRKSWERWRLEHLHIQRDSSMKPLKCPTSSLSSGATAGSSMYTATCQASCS
Outline: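 Read-out: steadylite Plus luminescence after 30 min shaking at room temperature in the dark. hGLP-1R BHK CRE-Luc cells were stimulated for 3 h at 37° C, 5% CO2. Runs were done in the absence and presence of 1% (w/v) HSA.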

[2] = biological target: T1, human GLP-1 receptor (hGLP-1R); assay: GLP-1 receptor assay, method B (CRE-luciferase reporter, BHK cells, 384-well); details: hGLP-1R Potency
[3] = biological target: T2, human GIP receptor (hGIPR) (Homo sapiens, UniProt P48546); assay: GIP receptor assay, method A (CRE-luciferase reporter, BHK cells); details: method A, absence of HSA; read-out: hGIPR Potency, no HSA, EC50
T2 construct: expressed in transfected cells
T2 sequence (P48546 22-466): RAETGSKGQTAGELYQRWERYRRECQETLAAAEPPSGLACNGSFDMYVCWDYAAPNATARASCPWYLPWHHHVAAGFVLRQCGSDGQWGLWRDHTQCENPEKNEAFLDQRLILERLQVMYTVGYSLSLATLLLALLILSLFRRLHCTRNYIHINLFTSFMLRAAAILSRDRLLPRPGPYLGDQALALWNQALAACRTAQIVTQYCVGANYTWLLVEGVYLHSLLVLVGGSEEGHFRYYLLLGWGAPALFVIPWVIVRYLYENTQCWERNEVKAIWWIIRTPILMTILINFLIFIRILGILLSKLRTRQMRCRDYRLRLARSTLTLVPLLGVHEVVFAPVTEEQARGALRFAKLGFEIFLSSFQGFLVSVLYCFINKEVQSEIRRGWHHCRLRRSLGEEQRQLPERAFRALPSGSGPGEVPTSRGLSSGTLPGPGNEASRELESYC
Outline: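 BHK cells co-expressing hGIPR and a CRE-luciferase reporter, plated 21-23 h before assay, stimulated 3 h at 37 °C with compounds (7-point 10-fold titration, duplicates) in ovalbumin-containing DMEM buffer with or without 1% HSA final. Luminescence read; EC50 (pM) from four-parameter logistic fit with shared Hill slope.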

[4] = biological target: T2, human GIP receptor (hGIPR); assay: GIP receptor assay, method B (CRE-luciferase reporter, BHK cells, 384-well); details: hGIPR Potency
[5] = biological target: T3, human amylin receptor (hAMYR3) (Homo sapiens, UniProt O60896+P30988); assay: Amylin receptor assay, method A (CRE-luciferase reporter, BHK cells); details: method A, absence of HSA; read-out: hAMYR3 Potency, no HSA, EC50
T3 construct: host or cells: BHK cells (Hollex-1 line expressing hCTR(a) and CRE-Luc), further transfected with human RAMP3
T3 sequence (P30988 25-474): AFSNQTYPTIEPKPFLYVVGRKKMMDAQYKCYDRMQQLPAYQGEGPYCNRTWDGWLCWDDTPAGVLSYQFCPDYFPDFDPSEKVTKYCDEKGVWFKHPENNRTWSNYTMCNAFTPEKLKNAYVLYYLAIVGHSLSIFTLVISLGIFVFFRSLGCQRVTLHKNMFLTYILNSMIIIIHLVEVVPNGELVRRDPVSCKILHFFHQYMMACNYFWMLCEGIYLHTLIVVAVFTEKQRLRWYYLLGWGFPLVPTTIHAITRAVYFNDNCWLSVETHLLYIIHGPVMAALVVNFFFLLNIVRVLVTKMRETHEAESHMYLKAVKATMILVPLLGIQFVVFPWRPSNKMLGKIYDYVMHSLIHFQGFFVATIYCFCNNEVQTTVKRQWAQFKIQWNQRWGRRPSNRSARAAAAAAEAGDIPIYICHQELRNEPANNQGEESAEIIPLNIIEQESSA
T3 sequence (O60896 24-148): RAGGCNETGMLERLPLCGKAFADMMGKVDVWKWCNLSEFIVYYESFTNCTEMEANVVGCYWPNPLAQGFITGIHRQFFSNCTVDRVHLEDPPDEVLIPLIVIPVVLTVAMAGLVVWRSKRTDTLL

[6] = biological target: T3, human amylin receptor (hAMYR3); assay: Amylin receptor assay, method B (CRE-luciferase reporter, BHK cells); details: hAMYR3 Potency
Protocol: To assess how the activation of the receptors is potentially influenced by the presence of human serum albumin (HSA), the in vitro assays were performed in the absence of HSA and presence of 1% (w/v) HSA.
It is thus possible to measure hAMYR3 activity using a CRE-luciferase reporter gene introduced into Baby Hamster Kidney (BHK) cells co-expressing the hAMYR3.
The cell line was further transfected with human receptor modifying protein 3 (RAMP3) using standard methods.
After centrifugation, the cell pellet was resuspended and diluted to approximately 2.5-4.0×10^6 (2.5E+6 to 4.0E+6) cells/mL in Recovery™ Cell Culture Freezing Medium (Gibco, 12648-010). Cells were aliquoted and stored at −180° C. until use.
The assay buffer consisted of DMEM without phenol red (Gibco, 11880-028) supplemented with 1× GlutaMAX (Gibco, 35050-038), 10 mM HEPES (Gibco, 15630-056) and 1% (w/v) ovalbumin (Sigma, A5503) either with or without 0.1% (v/v) Pluronic F-68 (Gibco, 24040-032) and either with or without HSA (Sigma, A9511).
To perform the assay, hAMYR3 BHK Cre-Luc cells were thawed, washed once in PBS (Gibco 14190-094) and seeded in 40 μL growth medium in a white 384-well culture plate (PerkinElmer/Revvity, 6007688) at a cell density of 4.0×10^3 (4.0E+3) cells/well the day before the experiment. The plate was incubated over night at 37° C. in 5% CO2. […] Serial dilutions were then mixed in a new 96-well plate with equal volume (1:1:1 ratio) of assay buffer and either assay buffer without or with 3% HSA (Sigma, A-9511). Twenty microliters of the solution mix were transferred to the cells which previously were washed once with PBS (Gibco 14190-094). After a short centrifugation, the assay plates were incubated for 3 hours at 37° C. in 5% CO2 and let to equilibrated at room temperature for 10 minutes before the addition of 30 μL steadylite Plus™ PerkinElmer/Revvity, 6066759) per well. Plates were sealed and incubated at room temperature with gentle shaking for 30 minutes while protected from light. Luminescence was detected on a luminescence plate reader e.g., a Synergy 2 (BioTek).

[7] = 1% HSA, EC50, methods B, in the presence of 1% HSA
[8] = no HSA, EC50, method B, absence of HSA

EC50 [1] | EC50 [3] | EC50 [5] | Compound | EC50 [2, 7] | EC50 [4, 7] | EC50 [6, 7] | EC50 [2, 8] | EC50 [4, 8] | EC50 [6, 8]
0.0528 nM | 0.00725 nM | 0.00393 nM | Y[Aib]EGTFTSDYSILLEEQAAREFIEWLLAGGPSK([AEEA-AEEA-γGlu-C16 diacid])GEASELSTAALGRLSAELHRLATLPRTETGSGSP-NH2 [Compound 18] | 0.135 nM | 0.0201 nM | 1.3 nM | – | – | –
– | – | – | CC[C@H](C)[C@H](NC(=O)[C@H](CCC(=O)O)NC(=O)[C@H](CCC(=O)O)NC(=O)[C@H](CC(C)C)NC(=O)[C@H](CC(C)C)NC(=O)[C@@H](NC(=O)[C@H](CO)NC(=O)[C@H](Cc1ccc(O)cc1)NC(=O)[C@H](CC(=O)O)NC(=O)[C@H](CO)NC(=O)[C@@H](NC(=O)[C@H](Cc1ccccc1)NC(=O)[C@@H](NC(=O)CNC(=O)[C@H](CCC(=O)O)NC(=O)C(C)(C)NC(=O)[C@@H](N)Cc1ccc(O)cc1)[C@@H](C)O)[C@@H](C)O)[C@@H](C)CC)C(=O)N[C@@H](C)C(=O)N[C@@H](C)C(=O)N[C@@H](CCCNC(=N)N)C(=O)N[C@@H](CCC(=O)O)C(=O)N[C@@H](Cc1ccccc1)C(=O)N[C@H](C(=O)N[C@@H](CCC(=O)O)C(=O)N[C@@H](Cc1c[nH]c2ccccc12)C(=O)N[C@@H](CC(C)C)C(=O)N[C@@H](CC(C)C)C(=O)N[C@@H](C)C(=O)NCC(=O)NCC(=O)N1CCC[C@H]1C(=O)N[C@@H](CO)C(=O)N[C@@H](CO)C(=O)NCC(=O)N[C@@H](C)C(=O)NCC(=O)N[C@@H](CCC(=O)O)C(=O)N[C@@H](C)C(=O)N1CCC[C@H]1C(=O)NCC(=O)N[C@@H](CCC(=O)O)C(=O)N[C@@H](C)C(=O)N1CCC[C@H]1C(=O)NCC(=O)N[C@@H](C)C(=O)N[C@@H](CO)C(=O)N[C@@H](Cc1c[nH]cn1)C(=O)N[C@@H](CC(C)C)C(=O)N[C@@H](CO)C(=O)N[C@H](C(=O)N[C@@H](C)C(=O)N[C@@H](CCC(N)=O)C(=O)N[C@H](C(=O)N[C@@H](CCC(N)=O)C(=O)N[C@@H](CCCNC(=N)N)C(=O)N[C@@H](CC(C)C)C(=O)N[C@@H](CO)C(=O)N[C@@H](C)C(=O)N[C@@H](CCC(=O)O)C(=O)N[C@@H](CC(C)C)C(=O)N[C@@H](Cc1c[nH]cn1)C(=O)N[C@@H](CCCCNC(=O)COCCOCCNC(=O)COCCOCCNC(=O)CC[C@H](NC(=O)CCCCCCCCCCCCCCCCCCC(=O)O)C(=O)O)C(=O)N[C@@H](CC(C)C)C(=O)N[C@@H](C)C(=O)N[C@H](C(=O)N[C@@H](CC(C)C)C(=O)N1CCC[C@H]1C(=O)N[C@@H](CCCNC(=N)N)C(=O)N[C@H](C(=O)N[C@@H](CCC(=O)O)C(=O)N[C@H](C(=O)NCC(=O)N[C@@H](CO)C(=O)NCC(=O)N[C@@H](CO)C(=O)N1CCC[C@H]1C(N)=O)[C@@H](C)O)[C@@H](C)O)[C@@H](C)O)[C@@H](C)O)[C@@H](C)O)[C@@H](C)CC [Compound 189] | 0.0819 nM | 0.00918 nM | 1.21 nM | 0.0269 nM | 0.00318 nM | 0.0127 nM
